We go through 1 compound from paper PMC6683399, “Identification of a novel S6K1 inhibitor, rosmarinic acid methyl ester, for treating cisplatin-resistant cervical cancer” (BMC Cancer, 2019).

This test has as its target T1, S6K1 (p70 S6K1, ribosomal protein S6 kinase 1) (Homo sapiens, UniProt P23443).
T1 construct: gene RPS6KB1; recombinant active S6K1 (R&D systems 896-KS)
The experiment in a line: in vitro kinase assay with recombinant S6K1 and GST-S6 (also H2B) substrate, […] ATP, immunoblot readout. It is filed as biochemical.

T1 sequence (P23443 whole entry): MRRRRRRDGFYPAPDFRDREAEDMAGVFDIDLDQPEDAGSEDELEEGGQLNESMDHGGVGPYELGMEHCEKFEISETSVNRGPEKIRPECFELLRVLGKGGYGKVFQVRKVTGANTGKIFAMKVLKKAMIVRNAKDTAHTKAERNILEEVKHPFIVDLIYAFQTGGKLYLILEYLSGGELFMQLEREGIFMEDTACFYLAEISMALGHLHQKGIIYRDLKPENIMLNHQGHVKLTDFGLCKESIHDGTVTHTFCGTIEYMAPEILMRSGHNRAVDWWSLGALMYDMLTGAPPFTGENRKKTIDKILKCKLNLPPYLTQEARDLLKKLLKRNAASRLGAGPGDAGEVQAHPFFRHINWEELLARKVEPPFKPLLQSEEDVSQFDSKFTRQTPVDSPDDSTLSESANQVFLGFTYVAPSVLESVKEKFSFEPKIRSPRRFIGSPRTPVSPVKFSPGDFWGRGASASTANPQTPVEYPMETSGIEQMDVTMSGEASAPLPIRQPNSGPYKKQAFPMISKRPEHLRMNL

Turning to `COC(=O)[C@@H](Cc1ccc(O)c(O)c1)OC(=O)/C=C/c1ccc(O)c(O)c1` [RAME, rosmarinic acid methyl ester], the “in vitro kinase assay with recombinant S6K1 and GST-S6 (also H2B) substrate, 100” value is given as “RAME inhibited the phosphorylation of S6 in dose-dependent manner (Fig. 2b)”.
